Data: patent US20230190935A1, “Blood pathogen inactivation method” (Institute of Blood Transfusion CAMS, priority 2021, published 2023)

Test system: S. aureus
Assay: Pathogen inactivation in plasma spiked with S. aureus: combinations of low-frequency sonication, UV light and riboflavin
Assay type: cell-based
Details: for growth of S. aureus after treatment: n = 6

## Cc1cc2nc3c(=O)[nH]c(=O)nc-3n(C[C@H](O)[C@H](O)[C@H](O)CO)c2cc1C [riboflavin]
Riboflavin-containing sample (50 µmol/L, plasma) + low-frequency sonication 30 KHz, no illumination, table row 0.27 J/mL, 10 min
  growth of S. aureus after treatment: 5.84 ± 0.18 log
Riboflavin-containing sample (50 µmol/L, plasma) + low-frequency sonication 30 KHz, no illumination, table row 0.54 J/mL, 20 min
  growth of S. aureus after treatment: 5.72 ± 0.30 log
Riboflavin-containing sample (50 µmol/L, plasma) + low-frequency sonication 30 KHz, no illumination, table row 0.81 J/mL, 30 min
  growth of S. aureus after treatment: 5.67 ± 0.32 log
Sonication (30 KHz) + UV light (311 ± 50 nm) + riboflavin 50 µmol/L in plasma, light energy 0.27 J/mL, 10 min
  growth of S. aureus after treatment: 4.48 ± 0.46 log
Sonication (30 KHz) + UV light (311 ± 50 nm) + riboflavin 50 µmol/L in plasma, light energy 0.54 J/mL, 20 min
  growth of S. aureus after treatment: 2.04 ± 0.71 log
Sonication (30 KHz) + UV light (311 ± 50 nm) + riboflavin 50 µmol/L in plasma, light energy 0.81 J/mL, 30 min
  growth of S. aureus after treatment: 1.28 ± 0.66 log
UV light (311 ± 50 nm) + riboflavin 50 µmol/L in plasma, no sonication, light energy 0.27 J/mL, 10 min
  growth of S. aureus after treatment: 5.41 ± 0.029 log
UV light (311 ± 50 nm) + riboflavin 50 µmol/L in plasma, no sonication, light energy 0.54 J/mL, 20 min
  growth of S. aureus after treatment: 5.66 ± 0.09 log
UV light (311 ± 50 nm) + riboflavin 50 µmol/L in plasma, no sonication, light energy 0.81 J/mL, 30 min
  growth of S. aureus after treatment: 5.23 ± 0.16 log
UV light + riboflavin group, 0.81 J/mL
  pathogen inactivation effect (in words): no inactivation effect
low-frequency sonication + UV light + riboflavin
  effect of combining low-frequency sonication with riboflavin photochemical method (in words): synergistic effect
Sonication + UV light + riboflavin group
  pathogen inactivation effect (in words): strong pathogen inactivation effect
Sonication + riboflavin group, 0.81 J/mL
  pathogen inactivation effect (in words): no inactivation effect
